Where no end group is shown, it is not given here.
What was measured:
ZIKV = ZIKV neutralisation by mutant, enantiomer and variant peptides (strain not stated); type: cell-based, Zika virus
Protocol: To further characterize Yodha peptide, we generated alanine-scanning mutants of the peptide, which removes the side chain, but maintains peptide conformation, allowing for the assessment of the significance of each amino acid within the larger structure (Fig. 4A). Each of 23 mutated peptides was tested for its (a) ability to neutralize ZIKV (Fig. 4B) and (b) toxicity against human RBC, if any (Fig. 4C).
So next, we sought to determine how common this peptide or its analogs are in host defense peptides isolated from elsewhere in the world. […] We then determined the extent to which any of these variant peptides can neutralize ZIKV. […] We also generated a series of mutant Yodha peptides, including one which lacks the C terminal DDQERC, a short 12 peptide fragment that lacks the EEERGA from variant #12, and a S1P peptide that replace S1-P in the full-length Yodha (Fig. 5D) and tested their activity against ZIKV (Fig. 5D).
(§1) Peptides were incubated with ZIKV (100 FFU/well) for 2 h at 37 °C. This incubated mixture was used to infect Vero cells for 1.5 h at 37 °C. Cells and inoculum were overlaid with 2% methylcellulose solution (OptiMEM; Gibco) and incubated for 72 h at 37 °C. Cells were washed with PBS and fixed with a 1:1 methanol/acetone mixture for 30 min. Cells were blocked with 5% milk/PSB at room temperature for 20 min and incubated with primary antibody (anti-flavivirus mouse 4G2[10] antibody) for 2 h at 37 °C. Then, cells were incubated with secondary antibody (HRP-conjugated goat anti-mouse IgG, Cell Signaling) for 1 h at 37 °C. Cells were developed with TrueBlue Peroxidase Substrate (KPL). Plates were read on a CTL-ImmunoSpot S6 Micro analyzer.

DENV3 = settings: FFA
Protocol: Dengue virus strains 1, 2, 3 and 4 were treated with wither Yodha or control OVA peptide at (A) 50 µM (B) 160 µM concentration and the % of viral focus forming units were determined. (C) IC50 measurement of Yodha in DENVs infection by FFA. […] OVA peptide was used a negative control.
as §1

PMLLLFFLGTISLSLCQ [truncated Yodha variant 12]
activity of truncated and S1P mutant peptides against ZIKV versus WT Yodha (ZIKV): significantly improved activity
efficiency against DENV3 compared to the full length Yodha peptide (DENV3; dose escalation): very efficient
IC50 (DENV3; read-out: IC50 for DENV3): 30 µM

PMLLLFFLGTISLSLCQEERGA [variant 21, naturally occurring variant of Yodha isolated from the frog I. temporalis]
virucidal activity of naturally occurring variants against ZIKV (ZIKV): exhibited activity

PMLLLFFLGTISLSLCQEEERGA [variant #12, brevinin-2KK2, naturally occurring variant of Yodha from Rana kukunoris]
increased effect against ZIKV than Yodha peptide (ZIKV): 1.6 fold

From paper PMC7804942, “The amphibian peptide Yodha is virucidal for Zika and dengue viruses” (Scientific Reports, 2021)
